Assay results as given in PubChem BioAssay AID2060908 (Molecular Pharmacology Branch, DTP, NCI, 2025).

System: 186277-243-T-J2-PDC complex spheroids, viability
Assay: Anticancer human tumor 186277-243-T-J2-PDC patient-derived colon adenocarcinoma cell line growth inhibition [RAS]
Conditions: for viability, T/C: stronger effect = lower value
How it was run: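 Tumour cells grown as complex spheroids with HUVEC endothelial cells and mesenchymal stem cells, treated with RAS pathway inhibitor combinations. Each agent spans half-log steps from near clinical Cmax, or 10 microM where Cmax is unknown.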

[1] = curve of first compound, second compound 0.00316 µM
[2] = curve of first compound, second compound 0.01 µM
[3] = curve of first compound, second compound 0.0316 µM
[4] = curve of first compound, second compound 0.1 µM
[5] = curve of first compound, second compound 0.316 µM
[6] = curve of first compound, second compound 1 µM
[7] = second compound 0.00316 µM, first compound 0.0316 µM
[8] = second compound 0.00316 µM, first compound 0.1 µM
[9] = second compound 0.00316 µM, first compound 0.316 µM
[10] = second compound 0.00316 µM, first compound 1 µM
[11] = second compound 0.01 µM, first compound 0.0316 µM
[12] = second compound 0.01 µM, first compound 0.1 µM
[13] = second compound 0.01 µM, first compound 0.316 µM
[14] = second compound 0.01 µM, first compound 1 µM
[15] = second compound 0.0316 µM, first compound 0.0316 µM
[16] = second compound 0.0316 µM, first compound 0.1 µM
[17] = second compound 0.0316 µM, first compound 0.316 µM
[18] = second compound 0.0316 µM, first compound 1 µM
[19] = second compound 0.1 µM, first compound 0.0316 µM
[20] = second compound 0.1 µM, first compound 0.1 µM
[21] = second compound 0.1 µM, first compound 0.316 µM
[22] = second compound 0.1 µM, first compound 1 µM
[23] = second compound 0.316 µM, first compound 0.0316 µM
[24] = second compound 0.316 µM, first compound 0.1 µM
[25] = second compound 0.316 µM, first compound 0.316 µM
[26] = second compound 0.316 µM, first compound 1 µM
[27] = second compound 1 µM, first compound 0.0316 µM
[28] = second compound 1 µM, first compound 0.1 µM
[29] = second compound 1 µM, first compound 0.316 µM
[30] = second compound 1 µM, first compound 1 µM
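Further: spheroids exposed to compounds for 7 days before viability read.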

O=C(c1ccc(F)c(F)c1Nc1ccc(I)cc1F)N1CC(O)([C@@H]2CCCCN2)C1 + C=CC(=O)N1CCN(c2nc(OCC3CCCN3C)nc3c(F)c(-c4nc(N)cc(C)c4C(F)(F)F)c(Cl)cc23)C(C)C1
IC50 [1]: 52.1 nM | IC50 [2]: 63.7 nM | IC50 [3]: 66.9 nM | IC50 [4]: 74.5 nM | IC50 [5]: 73.4 nM | IC50 [6]: 86.1 nM | viability, T/C (second compound 0.00316 µM, first compound 0.00316 µM): 104% | viability, T/C (second compound 0.00316 µM, first compound 0.01 µM): 99.3% | viability, T/C [7]: 59.9% | viability, T/C [8]: 34% | viability, T/C [9]: 12% | viability, T/C [10]: 5.96% | viability, T/C (second compound 0.01 µM, first compound 0.00316 µM): 93.8% | viability, T/C (second compound 0.01 µM, first compound 0.01 µM): 110% | viability, T/C [11]: 79.2% | viability, T/C [12]: 30.4% | viability, T/C [13]: 11.9% | viability, T/C [14]: 5.44% | viability, T/C (second compound 0.0316 µM, first compound 0.00316 µM): 99.3% | viability, T/C (second compound 0.0316 µM, first compound 0.01 µM): 87.8% | viability, T/C [15]: 78.1% | viability, T/C [16]: 35% | viability, T/C [17]: 12.1% | viability, T/C [18]: 5.54% | viability, T/C (second compound 0.1 µM, first compound 0.00316 µM): 75.7% | viability, T/C (second compound 0.1 µM, first compound 0.01 µM): 98% | viability, T/C [19]: 70.5% | viability, T/C [20]: 42.8% | viability, T/C [21]: 11.4% | viability, T/C [22]: 5.74% | viability, T/C (second compound 0.316 µM, first compound 0.00316 µM): 78.8% | viability, T/C (second compound 0.316 µM, first compound 0.01 µM): 92.2% | viability, T/C [23]: 93.8% | viability, T/C [24]: 35.9% | viability, T/C [25]: 13.3% | viability, T/C [26]: 7.18% | viability, T/C (second compound 1 µM, first compound 0.00316 µM): 98.1% | viability, T/C (second compound 1 µM, first compound 0.01 µM): 96.8% | viability, T/C [27]: 82.6% | viability, T/C [28]: 45.6% | viability, T/C [29]: 13.2% | viability, T/C [30]: 6.57%

Nc1ccn(C2OC(CO)C(O)C2(F)F)c(=O)n1 (stereo not drawn)
viability, T/C (compound 0.00316 µM): 57.2% [middle of 4 runs] | viability, T/C (compound 0.01 µM): 12.7% [middle of 4 runs] | viability, T/C (compound 0.0316 µM): 12% [middle of 4 runs] | viability, T/C (compound 0.1 µM): 12.9% [middle of 4 runs] | viability, T/C (compound 0.316 µM): 10.6% [middle of 4 runs] | viability, T/C (compound 1 µM): 12.1% [middle of 4 runs] | IC50 (curve of compound): 3.81 nM [middle of 4 runs]

NC1c2ccccc2OC12CCN(c1cnc3c(N4CCCc5ncccc54)n[nH]c3n1)CC2 (stereo not drawn) + C=CC(=O)N1CCN(c2nc(OCC3CCCN3C)nc3c(F)c(-c4nc(N)cc(C)c4C(F)(F)F)c(Cl)cc23)C(C)C1
IC50 [1]: > 10000 nM | IC50 [2]: > 10000 nM | IC50 [3]: 9070 nM | IC50 [4]: 9170 nM | IC50 [5]: > 10000 nM | IC50 [6]: > 10000 nM | viability, T/C [7]: 83.8% | viability, T/C [8]: 94.6% | viability, T/C [9]: 101% | viability, T/C [10]: 75% | viability, T/C (second compound 0.00316 µM, first compound 3.16 µM): 64.4% | viability, T/C (second compound 0.00316 µM, first compound 10 µM): 50.3% | viability, T/C [11]: 100% | viability, T/C [12]: 109% | viability, T/C [13]: 100% | viability, T/C [14]: 67.9% | viability, T/C (second compound 0.01 µM, first compound 3.16 µM): 72.6% | viability, T/C (second compound 0.01 µM, first compound 10 µM): 57.6% | viability, T/C [15]: 95.5% | viability, T/C [16]: 108% | viability, T/C [17]: 89.6% | viability, T/C [18]: 79.4% | viability, T/C (second compound 0.0316 µM, first compound 3.16 µM): 82.1% | viability, T/C (second compound 0.0316 µM, first compound 10 µM): 45.8% | viability, T/C [19]: 85% | viability, T/C [20]: 96.7% | viability, T/C [21]: 77.4% | viability, T/C [22]: 80.7% | viability, T/C (second compound 0.1 µM, first compound 3.16 µM): 84% | viability, T/C (second compound 0.1 µM, first compound 10 µM): 47.3% | viability, T/C [23]: 108% | viability, T/C [24]: 110% | viability, T/C [25]: 88.7% | viability, T/C [26]: 85.3% | viability, T/C (second compound 0.316 µM, first compound 3.16 µM): 84.3% | viability, T/C (second compound 0.316 µM, first compound 10 µM): 52.4% | viability, T/C [27]: 112% | viability, T/C [28]: 92.5% | viability, T/C [29]: 79.6% | viability, T/C [30]: 88.7% | viability, T/C (second compound 1 µM, first compound 3.16 µM): 78.5% | viability, T/C (second compound 1 µM, first compound 10 µM): 45%

CCC(CC)c1cc(NC2CCC(N)C2)n2nccc2n1 (stereo not drawn) + CCn1c(-c2cc(N3CCN(C)CC3)cnc2C(C)OC)c2c3cc(ccc31)-c1csc(n1)CC(NC(=O)C1CC1C)C(=O)N1CCCC(N1)C(=O)OCC(C)(C)C2
IC50 (curve of first compound, second compound 0.000949 µM): 1840 nM | IC50 (curve of first compound, second compound 0.003 µM): 1730 nM | IC50 (curve of first compound, second compound 0.00949 µM): 419 nM | IC50 (curve of first compound, second compound 0.03 µM): < 31.6 nM | IC50 (curve of first compound, second compound 0.0949 µM): < 31.6 nM | IC50 (curve of first compound, second compound 0.3 µM): < 31.6 nM | viability, T/C (second compound 0.000949 µM, first compound 0.0316 µM): 123% | viability, T/C (second compound 0.000949 µM, first compound 0.1 µM): 115% | viability, T/C (second compound 0.000949 µM, first compound 0.316 µM): 109% | viability, T/C (second compound 0.000949 µM, first compound 1 µM): 101% | viability, T/C (second compound 0.000949 µM, first compound 3.16 µM): 4.75% | viability, T/C (second compound 0.000949 µM, first compound 10 µM): 0.22% | viability, T/C (second compound 0.003 µM, first compound 0.0316 µM): 99.4% | viability, T/C (second compound 0.003 µM, first compound 0.1 µM): 100% | viability, T/C (second compound 0.003 µM, first compound 0.316 µM): 107% | viability, T/C (second compound 0.003 µM, first compound 1 µM): 91.9% | viability, T/C (second compound 0.003 µM, first compound 3.16 µM): 3.89% | viability, T/C (second compound 0.003 µM, first compound 10 µM): 0.17% | viability, T/C (second compound 0.00949 µM, first compound 0.0316 µM): 55.5% | viability, T/C (second compound 0.00949 µM, first compound 0.1 µM): 54.6% | viability, T/C (second compound 0.00949 µM, first compound 0.316 µM): 57.5% | viability, T/C (second compound 0.00949 µM, first compound 1 µM): 33% | viability, T/C (second compound 0.00949 µM, first compound 3.16 µM): 3.19% | viability, T/C (second compound 0.00949 µM, first compound 10 µM): 0.17% | viability, T/C (second compound 0.03 µM, first compound 0.0316 µM): 15.8% | viability, T/C (second compound 0.03 µM, first compound 0.1 µM): 17% | viability, T/C (second compound 0.03 µM, first compound 0.316 µM): 18.1% | viability, T/C (second compound 0.03 µM, first compound 1 µM): 9.82% | viability, T/C (second compound 0.03 µM, first compound 3.16 µM): 3.01% | viability, T/C (second compound 0.03 µM, first compound 10 µM): 0.19% | viability, T/C (second compound 0.0949 µM, first compound 0.0316 µM): 8.36% | viability, T/C (second compound 0.0949 µM, first compound 0.1 µM): 8.25% | viability, T/C (second compound 0.0949 µM, first compound 0.316 µM): 9.17% | viability, T/C (second compound 0.0949 µM, first compound 1 µM): 5.58% | viability, T/C (second compound 0.0949 µM, first compound 3.16 µM): 2.44% | viability, T/C (second compound 0.0949 µM, first compound 10 µM): 0.29% | viability, T/C (second compound 0.3 µM, first compound 0.0316 µM): 7.09% | viability, T/C (second compound 0.3 µM, first compound 0.1 µM): 6.68% | viability, T/C (second compound 0.3 µM, first compound 0.316 µM): 6.45% | viability, T/C (second compound 0.3 µM, first compound 1 µM): 4.66% | viability, T/C (second compound 0.3 µM, first compound 3.16 µM): 2.73% | viability, T/C (second compound 0.3 µM, first compound 10 µM): 0.31%
